Measured values published in US4098778A, “β-Endorphin analog” (Hoffmann-La Roche Inc., priority 1977, dated 1978).

Assays:
[1] = test system: guinea pig ileum; assay: In vitro opiate activity, guinea pig ileum method of Kosterlitz et al.; assay type: cell-based; settings: for In vitro opiate activity: guinea pig ileum, βc-endorphin = 100
Text: The opiate activity of the peptide of the invention, the parent peptide and other fragment analogs thereof as assayed in vitro by the guinea pig ileum method of Kosterlitz et al., Brit. J. Pharmacol. 39, 398 (1970) is seen in Table 2 below.

[2] = test system: mice; assay: Analgesic activity in mice by the tail-flick method, peptide injected icv; assay type: in vivo; settings: for In vivo analgesic activity Relative Potency: molar basis, βc-endorphin = 100; for In vivo analgesic activity AD50: tail-flick, male ICR mice, (95% confidence limit)
Method: The analgesic activity of the synthetic products was assessed in mice by the tail-flick method of D'Amour and Smith J. Pharmacol. Exp. Ther. 72, 74 (1941). Male ICR mice weighing 25-30 g were used. The peptide was injected icv in a volume of 5 μl as described by Haley and McCormick, Br. J. Pharmacol. 12, 12 (1957). To evaluate the tail-flick response, a control latency (T0) was obtained from the mean of two latencies determined prior to the peptide injection; the test latencies (T1) were determined at various times after injection for each animal. "Percent analgesia" was calculated as [(T1 -T0)/(T2 -T0)] × 100; where the cutoff time (T2) was 10 sec. With a twofold increase in latency of reaction time of the reponse as a quantal index of inhibition, the median antinociceptive dose (AD50) and 95% confidence limits were calculated as described by Litchfield and Wilcoxon, J. Pharmacol. Exp. Ther. 96, 99 (1949).

Substance | In vitro opiate activity [1] | In vivo analgesic activity Relative Potency [2] | In vivo analgesic activity AD50 ([2]; icv) | reversal of activity by naloxone ([1]; activity as assayed in vitro) | potency relative to βc-endorphin as assayed in vitro ([1]; of βc-endorphin) | inhibition of the tail-flick response ([2]; doses of 42.5 and 85 μg, icv, mice) | analgesic activity (tail flick method) ([2]; mice)
βc -endorphin (YGGFMTSEKSQTPLVTLFKNAIIKNAHKKGQ; Beta-endorphin; UniProt P01203 1-31, looked up) [parent peptide] | 100 | 100 | 0.11 (0.07-0.17) μg/mouse |  |  |  | 
βc -Endorphin-(1-5)-(28-31) | 35 | < 0.1 | > 86 μg/mouse |  |  |  | 
βh -Endorphin-(1-5)-(16-31) | 135 | 0.3 | 25.1(16.8-37.1) μg/mouse |  |  |  | 
βc -endorphin (6-31) (TSEKSQTPLVTLFKNAIIKNAHKKGQ; Beta-endorphin; UniProt P01203 6-31, looked up, fragment) [βc -Endorphin-(6-31)] | 4 | < 0.1 | > 86 μg/mouse | not reversed by naloxone | 4% | slight inhibition of the tail-flick response | intrinsic measurable analgesic activity
